Data reported in US11408016B2, “Amino acid dehydrogenase mutant and application in synthesis of L-glufosinate-ammonium thereof” (ZHEJIANG UNIVERSITY OF TECHNOLOGY, priority 2018, dated 2022).

Assays:
[1] = biological target: T1, Pseudomonas monteilii amino acid dehydrogenase DyGDH (WP_060477601.1), original pDyGDH, SEQ ID No. 2 (Pseudomonas promysalinigenes, UniProt A0ABY6AJQ3); assay: Kinetic parameter determination, original pDyGDH; type: biochemical; details: pH 7.4, 35° C.
T1 sequence (A0ABY6AJQ3 1-446): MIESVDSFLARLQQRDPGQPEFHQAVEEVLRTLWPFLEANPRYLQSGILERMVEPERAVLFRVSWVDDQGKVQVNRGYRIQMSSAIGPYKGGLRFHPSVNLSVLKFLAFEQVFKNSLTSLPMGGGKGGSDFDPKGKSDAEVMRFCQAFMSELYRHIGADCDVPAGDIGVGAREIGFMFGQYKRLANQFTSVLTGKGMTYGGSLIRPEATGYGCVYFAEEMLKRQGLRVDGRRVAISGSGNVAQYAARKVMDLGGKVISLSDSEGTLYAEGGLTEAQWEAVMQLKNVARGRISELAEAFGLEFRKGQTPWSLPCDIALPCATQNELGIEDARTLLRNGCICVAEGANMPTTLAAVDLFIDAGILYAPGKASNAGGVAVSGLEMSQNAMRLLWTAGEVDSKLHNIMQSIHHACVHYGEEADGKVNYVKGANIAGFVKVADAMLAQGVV
Protocol: The gene of the amino acid dehydrogenase cloned from Pseudomonas monteilii WP_060477601.1 (the nucleotide sequence is shown in SEQ ID No. 1, and the amino acid sequence is shown in SEQ ID No. 2) was used to construct the expression vector pETDEut-dygdh, then the obtained vector was transformed into E. coli to obtain the original strain E. coli BL21(DE3)/pETDEut-dygdh. […]
(§1) The reaction system was 500 μL, the pure enzyme solution collected in Example 4 was diluted 10 times with pH 7.4, 100 mM phosphate buffer, then 100 μL of the resulting solution was sampled, added with the substrate and exogenous coenzyme NADPH, pH 7.4, 100 mM phosphate buffer was taken as a reaction medium, after reacting at 35° C. and 600 rpm for 10 min, the concentration of L-glufosinate-ammonium in the reacting solution was determined by HPLC (according to Example 4).
(§2) According to the sequential mechanism of amino acid dehydrogenase's catalytic reaction, vmax, Km^A, Km^B can be calculated by dual-reciprocal graph, the results were shown in Table 4.

[2] = biological target: Pseudomonas monteilii amino acid dehydrogenase DyGDH variant pDyGDH-F95I-A108T-R172P-R303H (F95I/A108T/R172P/R303H of SEQ ID No. 2) (Pseudomonas promysalinigenes, UniProt A0ABY6AJQ3, A108T/F95I/R172P/R303H); assay: Kinetic parameter determination, pDyGDH-F95I-A108T-R172P-R303H; type: biochemical
Protocol: The gene of the amino acid dehydrogenase cloned from Pseudomonas monteilii WP_060477601.1 (the nucleotide sequence is shown in SEQ ID No. 1, and the amino acid sequence is shown in SEQ ID No. 2) was used to construct the expression vector pETDEut-dygdh, then the obtained vector was transformed into E. coli to obtain the original strain E. coli BL21(DE3)/pETDEut-dygdh.
The mutant proteins were purified by Ni-NTA column (1.6×10 cm, Bio-Rad, the USA), and the specific operation was carried out as follows: (1) a Ni column was equilibrated with 5 column volumes of binding buffer (pH 8.0, 50 mM sodium phosphate buffer containing 0.3 M NaCl) until the baseline was steady; (2) the sample was loaded with a flow rate of 1 mL/min, the amount of the loading sample was 25-40 mg/mL calculated by the volume of the column, thereby attaching the target protein to the Ni column; (3) the column was washed with 6 column volumes of buffer A (pH 8.0, 50 mM sodium phosphate buffer containing 0.3 M NaCl and 30 mM imidazole) at a flow rate of 1 mL/min until the baseline was steady; (4) the column was washed with buffer B (pH 8.0, 50 mM sodium phosphate buffer containing 0.3 M NaCl and 500 mM imidazole) at a flow rate of 1 mL/min, the target protein was collected and dialyzed overnight in a pH 7.5, 20 mM phosphate buffer, thereby obtaining the pure enzyme; and (5) the Ni column was washed with 5 column volumes of binding buffer (pH 8.0, 50 mM sodium phosphate buffer containing 0.3 M NaCl) until the baseline was steady, and the Ni column was stored in 5 column volumes of ultrapure water containing 20% ethanol.
Kinetic parameters of the amino acid hydrogenase and its mutants were examined, 2-carbonyl-4-(hydroxymethylphosphinyl)-butyric acid was taken as substrate, the concentration was set as 2-10 mM (2, 4, 6, 8, 10 mM), the concentration of exogenous coenzyme NADPH was set as 1-5 mM (1, 2, 3, 4, 5 mM), 100 uL of pure enzyme solution was added (according to Example 4).
as §1, §2

Which results are given for `NC(=O)C1=CN([C@@H]2O[C@H](COP(=O)(O)OP(=O)(O)OC[C@H]3O[C@@H](n4cnc5c(N)ncnc54)[C@H](OP(=O)(O)O)[C@@H]3O)[C@@H](O)[C@H]2O)C=CC1` [NADPH]?
kcat/Km^A (NADPH) [1]: 385670 M⁻¹ s⁻¹; kcat/Km^A (NADPH) ([2]; pH 7.4, 35° C.): 1.43823e+07 M⁻¹ s⁻¹; catalytic efficiency on coenzyme NADPH, times higher than that of the original enzyme ([2]; versus original pDyGDH): 37.3 times

What does the source list for `CP(=O)(O)CCC(=O)C(=O)O` [2-carbonyl-4-(hydroxymethylphosphinyl)-butyric acid]?
kcat/Km^B (2-carbonyl-4-(hydroxymethylphosphinyl)-butyric acid) [1]: 12410 M⁻¹ s⁻¹; kcat/Km^B (2-carbonyl-4-(hydroxymethylphosphinyl)-butyric acid) ([2]; pH 7.4, 35° C.): 363100 M⁻¹ s⁻¹; catalytic efficiency kcat/Km^B on 2-carbonyl-4-(hydroxymethylphosphinyl)-butyric acid, times higher than that of the original enzyme ([2]; versus original pDyGDH): 29.3 times
